{"source": "patent US20240300975A1", "about": "“DIMETHYL-SUBSTITUTED THIAZOLOLACTAM COMPOUND AND USE THEREOF” (D3 Bio (Wuxi) Co., Ltd., priority 2021, published 2024)", "key": {"canine plasma albumin": {"test_system": "canine plasma albumin", "assay": "Plasma protein binding (PPB), canine plasma", "format": "in vitro ADME", "conditions": "ultracentrifugation, 37° C., 4 h", "protocol": "(§1) The binding degree of the assay compound to human/mouse/rat/canine/monkey plasma albumin was studied.\n(§2) • 1) Matrix preparation: on the day of the assay, plasma was thawed in cold water and centrifuged at 3220 rpm for 5 min to remove all clots. The pH of the resulting plasma was measured and adjusted to 7.4±0.1 using 1% phosphoric acid or 1N sodium hydroxide as needed. • 2) Dilution procedure for the assay compound: the assay compound was dissolved in dimethyl sulfoxide (DMSO) to prepare stock solutions with concentrations of 10 mM and 2 mM, respectively. A 40 μM working solution was prepared by diluting 2 μL of stock solution (2 mM) with 98 μL of DMSO. A 400 μM working solution of the control compound was prepared by diluting 10 μL of stock solution with 240 μL of DMSO. The working solution of the compound (5 μL) was mixed well with a blank matrix (995 μL) at a ratio of 1:200 to prepare a loading matrix.\n(§3) • a) An equal volume of 30 μL of loading matrix (n=2) was transferred to a sample collection plate to prepare a time 0 (TO) sample for residue determination. The sample was immediately matched with the corresponding blank buffer to a final volume of 60 μL, and the volume ratio of plasma to buffer in each well was 1:1. […] The mixture was centrifuged at 4000 rpm for 20 min and 100 μL of supernatant from each sample was analyzed by LC-MS/MS."}, "In vivo PK study in mice": {"assay": "In vivo PK study in mice", "conditions": "female BALB/c mice", "description": "Female BALB/c mice were used as assay animals to determine the blood concentration of the compound and evaluate the pharmacokinetic behavior after a single administration.\nFour healthy adult female BALB/c mice were selected, wherein 2 mice were in an intravenous injection group and 2 mice were in an oral group. The vehicle in the intravenous injection group was 5% DMSO+95% (20% HP-β-CD). The compound to be assayed was mixed with an appropriate amount of vehicle for intravenous injection, vortexed and sonicated to prepare a clear solution of 0.5 mg/mL. The clear solution was filtered by a microporous membrane, and then ready for use. The vehicle in the oral group was 5% DMSO+95% (20% HP-β-CD). The compound to be assayed was mixed with the vehicle, vortexed and sonicated to prepare a solution of 0.3 mg/mL. Mice were administered 1 mg/kg intravenously or 3 mg/kg orally, and then whole blood was collected for a certain period. Plasma was prepared. The drug concentration was analyzed by LC-MS/MS method, and the pharmacokinetic parameters were calculated by Phoenix WinNonlin software (Pharsight, USA)."}, "[1]": {"assay": "In vivo PK study in SD rats", "conditions": "male SD rats", "protocol": "Male SD rats were used as assay animals. After a single administration, the plasma concentration of the compound was measured and the pharmacokinetic behavior was evaluated.\nSix healthy adult male SD rats were selected, wherein 3 rats were in an intravenous injection group and 3 rats were in an oral group. The vehicle in the intravenous injection group was 5% DMSO+95% (20% HP-β-CD). The compound to be assayed was mixed with an appropriate amount of vehicle for intravenous injection, vortexed and sonicated to prepare a clear solution of 0.2 mg/mL. The clear solution was filtered by a microporous membrane, and then ready for use. The vehicle in the oral group was 5% DMSO+95% (20% HP-β-CD). The compound to be assayed was mixed with the vehicle, vortexed and sonicated to prepare a solution of 1 mg/mL. SD rats were administered 1 mg/kg intravenously or 10 mg/kg orally, and then whole blood was collected for a certain period. Plasma was prepared. The drug concentration was analyzed by LC-MS/MS method, and the pharmacokinetic parameters were calculated by Phoenix WinNonlin software (Pharsight, USA)."}, "monkey plasma albumin": {"test_system": "monkey plasma albumin", "assay": "Plasma protein binding (PPB), monkey plasma", "format": "in vitro ADME", "conditions": "ultracentrifugation, 37° C., 4 h", "protocol": "as §1, §2, §3"}, "ERK2": {"molecular_target": "ERK2 (Homo sapiens (Human), UniProt P28482)", "sequence (P28482 whole entry)": "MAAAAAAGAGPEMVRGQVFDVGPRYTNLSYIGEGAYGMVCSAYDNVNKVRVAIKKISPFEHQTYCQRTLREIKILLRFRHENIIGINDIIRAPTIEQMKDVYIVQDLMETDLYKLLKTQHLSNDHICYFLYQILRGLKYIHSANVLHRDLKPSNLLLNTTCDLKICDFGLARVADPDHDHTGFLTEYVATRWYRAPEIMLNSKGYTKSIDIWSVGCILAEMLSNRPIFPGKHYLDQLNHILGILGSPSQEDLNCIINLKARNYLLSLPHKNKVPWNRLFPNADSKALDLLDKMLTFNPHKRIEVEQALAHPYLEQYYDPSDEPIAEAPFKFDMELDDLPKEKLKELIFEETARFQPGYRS", "assay": "In vitro ERK2 kinase activity assay (33P-ATP, filter-binding)", "format": "biochemical", "protocol": "The ability of compounds to inhibit ERK1 and ERK2 kinase activity was measured.\n20 mM Hepes (pH 7.5), 10 mM MgCl2, 1 mM ethylenebis(oxyethylenenitrilo)tetraacetic acid (EGTA), 0.02% Brij35, 0.02 mg/mL bovine serum albumin (BSA), 0.1 mM Na3VO4, 2 mM dithiothreitol (DTT), 1% DMSO.\nThe assay compound was dissolved in 100% DMSO to prepare a stock solution of specific concentration. The compound was serially diluted in DMSO solution using Integra Viaflo Assist smart pipette.\n• a) The substrate MBP was prepared in freshly prepared reaction buffer; • b) ERK1 (or ERK2) kinase was added to the above-mentioned MBP solution and mixed gently; • c) The compound dissolved in 100% DMSO was added to the kinase reaction system using ultrasound technology (Echo550; nanoliter range), and the mixture was incubated at room temperature for 20 minutes; • d)^33P-ATP (specific concentration of […]) was added to the reaction system, and the reaction was started at this time; • e) The mixture was incubated at room temperature for 2 hours; • f) The amount of radioactivity was detected by filter-binding method; • g) ERK1 (or ERK2) kinase activity was calculated as the ratio of the remaining kinase activity in the assay sample to the kinase activity of the control group (treated by DMSO).\nCurve was fitted using Prism (GraphPad software) and IC50 values were calculated."}, "mouse plasma albumin": {"test_system": "mouse plasma albumin", "assay": "Plasma protein binding (PPB), mouse plasma", "format": "in vitro ADME", "conditions": "ultracentrifugation, 37° C., 4 h", "protocol": "as §1, §2, §3"}}, "note": "pIC50: −log10 of the molar value.", "data": [{"compound": "Cc1cccc(CN2C(=O)c3nc(-c4nc(Nc5ccnn5C)ncc4C)sc3C2(C)C)n1", "note": "[WX001]", "values": [{"measurement": "Plasma protein binding rate (unbound %)", "setting": "canine plasma albumin", "result": 4.1, "unit": "%"}, {"measurement": "Oral DNAUC (AUCPO/Dose)", "setting": "In vivo PK study in mice; 3 mg/kg orally", "result": 787.18, "unit": "nM · h/mpk"}, {"measurement": "clearance", "setting": "In vivo PK study in mice; mouse, plasma, iv, 1 mg/kg intravenously", "result": 27.5, "unit": "mL/min/kg"}, {"measurement": "Vd", "setting": "In vivo PK study in mice; mouse, plasma, iv, 1 mg/kg intravenously, read-out: Vdss", "result": 1.6, "unit": "L/kg"}, {"measurement": "bioavailability", "setting": "In vivo PK study in mice; mouse, plasma, oral, 1 mg/kg intravenously / 3 mg/kg orally, read-out: F % (oral bioavailability)", "result": 62, "unit": "%"}, {"measurement": "half-life", "setting": "In vivo PK study in mice; mouse, plasma, single administration", "result": 1.29, "unit": "h"}, {"measurement": "Cmax", "setting": "In vivo PK study in mice; mouse, po, 3 mg/kg orally, plasma", "result": 2120, "unit": "nM"}, {"measurement": "Oral DNAUC (AUCPO/Dose)", "setting": "[1]; 10 mg/kg orally", "result": 302.12, "unit": "nM · h/mpk"}, {"measurement": "clearance", "setting": "[1]; rat, plasma, iv, 1 mg/kg intravenously", "result": 24.8, "unit": "mL/min/kg"}, {"measurement": "Vd", "setting": "[1]; rat, plasma, iv, 1 mg/kg intravenously, read-out: Vdss", "result": 1.06, "unit": "L/kg"}, {"measurement": "bioavailability", "setting": "[1]; rat, plasma, oral, 1 mg/kg intravenously / 10 mg/kg orally, read-out: F % (oral bioavailability)", "result": 21, "unit": "%"}, {"measurement": "half-life", "setting": "[1]; rat, plasma, single administration", "result": 2.6, "unit": "h"}, {"measurement": "Cmax", "setting": "[1]; rat, po, 10 mg/kg orally, plasma", "result": 1010, "unit": "nM"}, {"measurement": "Plasma protein binding rate (unbound %)", "setting": "monkey plasma albumin", "result": 2.6, "unit": "%"}, {"measurement": "pIC50", "setting": "ERK2", "result": 9.31}, {"measurement": "Plasma protein binding rate (unbound %)", "setting": "mouse plasma albumin", "result": 7.2, "unit": "%"}]}]}
